Key:
B1 bradykinin receptor [1] = biological target: T1, B1 bradykinin receptor (Homo sapiens, UniProt P46663); test: Binding Assay: Binding assay using Bradykinin-1 receptor.
T1 sequence (P46663 whole entry): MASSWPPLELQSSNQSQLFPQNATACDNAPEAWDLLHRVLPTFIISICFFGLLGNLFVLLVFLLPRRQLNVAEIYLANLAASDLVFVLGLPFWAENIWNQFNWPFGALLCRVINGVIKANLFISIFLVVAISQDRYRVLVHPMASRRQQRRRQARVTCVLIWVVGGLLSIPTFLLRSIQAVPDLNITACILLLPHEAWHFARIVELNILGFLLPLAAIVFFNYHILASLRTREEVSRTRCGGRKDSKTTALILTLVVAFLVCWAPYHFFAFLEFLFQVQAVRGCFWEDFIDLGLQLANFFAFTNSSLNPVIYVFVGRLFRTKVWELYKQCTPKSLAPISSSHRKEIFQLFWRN

B1 bradykinin receptor [2] = biological target: T1, B1 bradykinin receptor; test: Calcium Mobilization Assay: Calcium mobilization assay using Bradykinin-1 receptor.; assay type: functional

Cc1nc(-c2c(F)cc(Cl)cc2-c2ccc3c(c2)CC[C@@H]3NC(=O)C2(NC(=O)c3nnc(C)o3)CC2)no1
Ki (B1 bradykinin receptor [1]): 9.5 nM | IC50 (B1 bradykinin receptor [2]): 3.4 nM

From ChEMBL document CHEMBL3639075, “Aryl-benzocycloalkyl amide derivatives” (2013)
